In data set [1] the test system is acetic acid-induced colitis in rats. Kind of data set: Prevention of acetic acid-induced colitis in a rat model. Format: in vivo, Sprague-Dawley rats. As to conditions: DFO 20 mg/kg 30 minutes before 4% acetic acid (FIG. 1). The protocol: Induction of colitis. Male Sprague-Dawley rats (250-350 g) were anesthetized with sodium pentobarbital, 55 mg/kg intraperitoneally. The abdomen was shaved and prepared for surgery. A midline incision was made, and the cecum and proximal colon were exteriorized. A reversible suture was placed at the junction of the cecum and proximal colon. The colon was rinsed with saline (10 ml), and the fluid and intestinal contents were gently expressed out the rectum. A gum-based rectal plug was inserted. The compound of interest, or distilled water in the control animals (2 ml), was injected intracolonically just distal to the ligature. The cecum and proximal colon were returned to the abdominal cavity; the compound was allowed to remain in the gut for 30 min. Then, the cecum and proximal colon were exteriorized again. The rectal plug was removed, and the drug was gently expressed out of the colon. […] The entire length of the colon was removed and assessed for damage both densitometrically and biochemically.
Quantitation of acetic acid-induced colitis. Gross damage was quantitated using Photoshop-based image analysis (version 5.0, Adobe Systems, Mountain View, Calif., USA) on an Apple iMac computer. […] The cursor was then placed on the histogram, the color range determined in an earlier step was selected, and the number of pixels encompassing that range and the percent damage were quantitated automatically.

Data set [2] is described as follows: Concentration of DFT analogs in rat plasma and cerebrospinal fluid after PO or SC dose. As to conditions: rats, PO 300 μmol/kg, monosodium salt. It is filed as in vivo, Sprague-Dawley rats. The procedure:
Adult male Sprague-Dawley rats (450-500 g) were used. The rats were not fasted. A sample solution of a monosodium salt of (S)-4′-(HO)-DADFT-norPE (III-A) or (S)-4′-(HO)-DADFT-PE (IV-A) was administered to the rats at an oral or subcutaneous dose of 300 μmol/kg. Concentrations of the DFT analogs in the plasma and cerebrospinal fluid of the rats were measured at 0.5 hour, 1 hour, 2 hours, 4 hours, and 8 hours post administration.

Data set [3] in a line: Apparent partition coefficient (LogPapp) of DFT analogs. It is filed as physicochemical.
Data set [4] in a line: Concentration of DFT analogs in rat plasma and eyes after SC dose, rats perfused with saline. Format: in vivo. As to conditions: SC 300 μmol/kg, one hour post dose; for concentration at 1 h: rat, plasma, rats perfused with saline; for Concentration in the eye: rats perfused with saline (about 100 ml, 5 minutes), entire eye. The procedure:
Rats were anesthetized with ketamine/xylazine about 50 minutes after dosing. Blood of the rats was collected via cardiac puncture into vacutainer tubes containing buffered sodium citrate one hour post dose. The rats' abdomen and thorax were opened, and a portion of the sternum/ribs was removed. A 19-gauge needle was inserted into the left ventricle of the rats, and the right atrium was cut. About 100 ml of saline was perfused transcardially for five minutes. The perfusion was stopped, and the rats' eyes were removed. Any extraneous tissue was trimmed and discarded. The eyes were frozen. The entire eye was then processed and assessed for the concentration of the DFT analog. The whole blood was centrifuged, and the plasma was separated and frozen until the concentration of the DFT analog was determined.

Data set [5] can be described thus: Concentration of DFT analogs in rat plasma and eyes after SC dose, rats not perfused. Format: in vivo. As to conditions: non-perfused rats, SC 300 μmol/kg, one hour post dose; for Concentration in the eye: entire eye; for concentration at 1 h: rat, plasma. The protocol: Rats were anesthetized with ketamine/xylazine about 50 minutes after dosing. Blood of the rats was collected via cardiac puncture into vacutainer tubes containing buffered sodium citrate one hour post dose. The rats' eyes were removed. Any extraneous tissue was trimmed and discarded. The eyes were frozen. The entire eye was then processed and assessed for the concentration of the DFT analog. The whole blood was centrifuged, and the plasma was separated and frozen until the concentration of the DFT analog was determined.

Setting [6] is: male, Sprague-Dawley, rat, cerebrospinal fluid, read-out: Concentration in cerebrospinal fluid.
Where [7] appears, read: male, Sprague-Dawley, rat, plasma, read-out: Concentration in plasma.
[8] abbreviates: male, Sprague-Dawley, rat, plasma, 1 h, read-out: Concentration in plasma.
The mark [9] stands for this setting: male, Sprague-Dawley, rat, plasma, 2 h.
Setting [10] is: male, Sprague-Dawley, rat, plasma, 4 h, read-out: Concentration in plasma.

Like-named read-outs stand apart in the source and are kept apart here.

As to `CC(=O)N(O)CCCCCNC(=O)CCC(=O)N(O)CCCCCNC(=O)CCC(=O)N(O)CCCCCN` [DFO, desferrioxamine], in data set [1], the “Prevention of acetic acid-induced colitis” value is given as “prevent acetic acid-induced colitis in rats”.
For the compound `COCCOCCOc1ccc(C2=N[C@@](C)(C(=O)O)CS2)c(O)c1` [III-A, (S)-4′-(HO)-DADFT-norPE], the concentration at 0.5 h is 8.07 ± 3.09 µM in data set [2] (setting [6]) and 424 ± 60 µM in data set [2] (setting [7]). The concentration at 1 h in data set [2] (male, Sprague-Dawley, rat, cerebrospinal fluid, 1 h, read-out: Concentration in cerebrospinal fluid) is 5.7 ± 2.74 µM; in data set [2] (setting [8]), 219 ± 19 µM; in data set [4], 218 ± 51 µM; in data set [5], 218 ± 16 µM. Further, the concentration at 4 h in data set [2] (male, Sprague-Dawley, rat, cerebrospinal fluid, 4 h, read-out: Concentration in cerebrospinal fluid) is 0 µM; in data set [2] (setting [10]), 2 ± 0.4 µM. Moreover, in data set [2] (male, Sprague-Dawley, rat, cerebrospinal fluid, 8 h), the concentration at 8 h was 0 nM. Besides, in data set [2] (setting [9]), the concentration at 2 h is 30 ± 5 µM. Further, the “Concentration in cerebrospinal fluid” value in data set [2] (2 h) was 2.32 (only 1 out 3 animals μM. Also, in data set [2] (8 h), the Concentration in plasma entry was “trace”. Besides, in data set [3], the LogPapp is −0.89. Besides, the “Concentration in the eye” value in data set [4] is 17.2 ± 5.5 nmol/g wet weight of the eye; in data set [5], 25.8 ± 6.0 nmol/g wet weight of the eye.
For `COCCOCCOCCOc1ccc(C2=N[C@@](C)(C(=O)O)CS2)c(O)c1` [IV-A, (S)-4′-(HO)-DADFT-PE], the concentration at 0.5 h in data set [2] (setting [6]) was determined as 2.14 ± 1.01 µM; in data set [2] (setting [7]), 142 ± 57 µM. Besides, the concentration at 1 h in data set [2] (setting [8]) worked out at 64 ± 7 µM. In addition, in data set [2] (setting [9]), the concentration at 2 h turned out to be 32 ± 20 µM. The concentration at 4 h in data set [2] (setting [10]) is 2 ± 0.5 µM. For the same compound, the “Concentration in cerebrospinal fluid” value in data set [2] (1 h), in data set [2] (2 h), in data set [2] (4 h) and in data set [2] (8 h) was “trace” each time. In data set [2] (8 h), the Concentration in plasma entry is given as “trace”. In addition, in data set [3], the LogPapp was −1.10.
In the case of `COc1ccc(C2=N[C@@H](C(=O)O)CS2)c(O)c1` [V-A], the LogPapp in data set [3] is recorded as −0.89. Also, in data set [4], the concentration at 1 h was determined as 663 ± 42 µM and the “Concentration in the eye” value is given as 29.7 ± 4.3 nmol/g wet weight of the eye. Also, in data set [5], the “Concentration in the eye” value is on record as 37.8 ± 4.3 nmol/g wet weight of the eye and the concentration at 1 h was determined as 701 ± 32 µM.

Source of the values: patent US11931346B2, “Uses of 4′-desferrithiocin analogs” (University of Florida Research Foundation, Incorporated, priority 2011, dated 2024).
